# Assay results taken from the supplement of paper PMC10307832.
# What was measured:
# Assay in all cases: relative viability (nuclei count vs DMSO), 5 days (fraction); higher = more cells survive
# [1] = compound: CC1=NN=C(O1)C2=NN=C(C=C2)N3CCC(CC3)OC4=C(C=CC(=C4)F)Cl + CS(=O)(=O)CCNCc1ccc(-c2ccc3ncnc(Nc4ccc(OCc5cccc(F)c5)c(Cl)c4)c3c2)o1 [Lapatinib] (partner 2 µM)
# In short: (§1)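 Lung cancer cell lines, seeded in 1536-well plates, were treated the following day by pin tool with a single drug or with five library-drug doses (not always all listed) in √10 steps on top of a fixed anchor-drug dose. Cells were fixed and nuclei stained in one step after 5 days, and nuclei were counted. Relative viability is the nuclei count for treated wells divided by that for vehicle wells, reported as medians of duplicate plates.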
# [2] = compound: CC(C)C[C@@H](C(=O)N[C@H](C(=O)OC1CCCC1)c1ccccc1)[C@H](O)C(=O)NO [Tosedostat] + CC(=O)Nc1cccc(-n2c(=O)n(C3CC3)c(=O)c3c(Nc4ccc(I)cc4F)n(C)c(=O)c(C)c32)c1 [Trametinib] (partner 0.02 µM)
# In short: as §1
# [3] = compound: CC(C)C[C@@H](C(=O)N[C@H](C(=O)OC1CCCC1)c1ccccc1)[C@H](O)C(=O)NO [Tosedostat] + CS(=O)(=O)N1CCN(Cc2cc3nc(-c4cccc5[nH]ncc45)nc(N4CCOCC4)c3s2)CC1 [Pictilisib] (partner 1 µM)
# In short: as §1
# [4] = compound: CC1=NN=C(O1)C2=NN=C(C=C2)N3CCC(CC3)OC4=C(C=CC(=C4)F)Cl + O=C(c1cc(Cc2n[nH]c(=O)c3ccccc23)ccc1F)N1CCN(C(=O)C2CC2)CC1 [Olaparib] (partner 8 µM)
# In short: as §1
cell line,measurement,setting,value
UMC-11,relative viability,[1]; first compound 0.253 µM,0.641
same,relative viability,[1]; first compound 0.8 µM,0.645
same,relative viability,[1]; first compound 2.53 µM,0.777
same,relative viability,[1]; first compound 8 µM,0.595
same,relative viability,[2]; first compound 0.02 µM,0.863
same,relative viability,[2]; first compound 0.06325 µM,0.681
same,relative viability,[2]; first compound 0.2 µM,0.663
same,relative viability,[2]; first compound 0.6325 µM,0.855
same,relative viability,[2]; first compound 2 µM,0.664
same,relative viability,[3]; first compound 0.02 µM,0.911
same,relative viability,[3]; first compound 0.06325 µM,0.807
same,relative viability,[3]; first compound 0.2 µM,0.782
same,relative viability,[3]; first compound 0.6325 µM,0.705
same,relative viability,[3]; first compound 2 µM,0.828
same,relative viability,[4]; first compound 0.253 µM,0.244
same,relative viability,[4]; first compound 0.8 µM,0.379
same,relative viability,[4]; first compound 2.53 µM,0.396
same,relative viability,[4]; first compound 8 µM,0.233
